Test results reported in PubChem BioAssay (NCI).
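Test compounds were applied to cells in 96-well plates for 48 hours at 5 doses. At the TGI there is no net growth.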

What was measured:
Test in all cases: NCI-60 cell line screen, 48 h
SF-268 CNS = tested on: SF-268 CNS
SK-MEL-28 melanoma = tested on: SK-MEL-28 melanoma
DLD-1 colon = tested on: DLD-1 colon
IGROV1 ovarian = tested on: IGROV1 ovarian
COLO 205 colon = tested on: COLO 205 colon
SNB-75 CNS = tested on: SNB-75 CNS
MOLT-4 leukemia = tested on: MOLT-4 leukemia
SW-620 colon = tested on: SW-620 colon
SF-295 CNS = tested on: SF-295 CNS
KM12 colon = tested on: KM12 colon
SNB-78 CNS = tested on: SNB-78 CNS
HCC-2998 colon = tested on: HCC-2998 colon
LOX IMVI melanoma = tested on: LOX IMVI melanoma
DMS 273 small cell lung = tested on: DMS 273 small cell lung
CAKI-1 renal = tested on: CAKI-1 renal
SK-MEL-2 melanoma = tested on: SK-MEL-2 melanoma
ACHN renal = tested on: ACHN renal
RPMI-8226 leukemia = tested on: RPMI-8226 leukemia
CCRF-CEM leukemia = tested on: CCRF-CEM leukemia
M19-MEL melanoma = tested on: M19-MEL melanoma
HCT-15 colon = tested on: HCT-15 colon
SK-MEL-5 melanoma = tested on: SK-MEL-5 melanoma
HOP-62 NSCLC = tested on: HOP-62 NSCLC
OVCAR-8 ovarian = tested on: OVCAR-8 ovarian
K-562 leukemia = tested on: K-562 leukemia
OVCAR-5 ovarian = tested on: OVCAR-5 ovarian
KM20L2 colon = tested on: KM20L2 colon
TK-10 renal = tested on: TK-10 renal
EKVX NSCLC = tested on: EKVX NSCLC
SN12C renal = tested on: SN12C renal
OVCAR-3 ovarian = tested on: OVCAR-3 ovarian
SF-539 CNS = tested on: SF-539 CNS
786-0 renal = tested on: 786-0 renal
HL-60(TB) leukemia = tested on: HL-60(TB) leukemia
HT29 colon = tested on: HT29 colon
UO-31 renal = tested on: UO-31 renal
LXFL 529 NSCLC = tested on: LXFL 529 NSCLC
SK-OV-3 ovarian = tested on: SK-OV-3 ovarian
NCI-H522 lung = tested on: NCI-H522 lung
MALME-3M melanoma = tested on: MALME-3M melanoma
M14 melanoma = tested on: M14 melanoma
NCI-H460 lung = tested on: NCI-H460 lung
UACC-62 melanoma = tested on: UACC-62 melanoma
XF 498 CNS = tested on: XF 498 CNS
NCI-H23 lung = tested on: NCI-H23 lung
DMS 114 small cell lung = tested on: DMS 114 small cell lung
HOP-18 NSCLC = tested on: HOP-18 NSCLC
SNB-19 CNS = tested on: SNB-19 CNS
OVCAR-4 ovarian = tested on: OVCAR-4 ovarian
A549 NSCLC = tested on: A549 NSCLC
RXF 393 renal = tested on: RXF 393 renal
NCI-H226 lung = tested on: NCI-H226 lung
HCT-116 colon = tested on: HCT-116 colon
UACC-257 melanoma = tested on: UACC-257 melanoma
U251 CNS = tested on: U251 CNS

Measured: TGI

COC(=O)/C(C#N)=C1\CCC(OC)N1 (stereo not given)
> 100 µM: all assays above
